# Patent publication US12454534B2, “Pyrrolo[2,3-b]pyrazines as HPK1 inhibitor and the use thereof” (BEIGENE, LTD., priority 2019, dated 2025)
# pIC50: −log10 of the molar value.
# Target: T1, HPK1 kinase (aa1-346, Life Technologies) (Homo sapiens, UniProt Q92918)
# T1 construct: HPK1 kinase (aa1-346, Life Technologies); purchased Life Technologies
# T1 sequence (Q92918 1-346): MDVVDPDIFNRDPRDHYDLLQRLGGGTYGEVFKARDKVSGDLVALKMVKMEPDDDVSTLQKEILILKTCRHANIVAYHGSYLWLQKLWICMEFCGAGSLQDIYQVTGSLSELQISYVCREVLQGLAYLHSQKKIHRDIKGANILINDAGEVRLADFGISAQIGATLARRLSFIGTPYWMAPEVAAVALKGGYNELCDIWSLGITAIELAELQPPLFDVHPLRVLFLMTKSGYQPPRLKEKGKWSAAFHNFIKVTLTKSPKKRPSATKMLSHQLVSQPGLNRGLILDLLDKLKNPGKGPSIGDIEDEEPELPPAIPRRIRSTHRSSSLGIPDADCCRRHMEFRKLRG
# Assay: HPK1 Kinase Activity Assay at 1 mM ATP (TR-FRET)
# Format: biochemical
# Conditions: HPK1 40 nM, read-out: Enzymatic activity IC50
# Description: HPK1 Kinase Activity Assay at 1 mM ATP
# Compounds disclosed herein were tested for inhibition of HPK1 kinase (aa1-346, Life Technologies) activity in assays based on the time-resolved fluorescence-resonance energy transfer (TR-FRET) methodology. The assays were carried out in 384-well low volume black plates in a reaction mixture containing HPK1 kinase (40 nM), 1 mM ATP, 0.5 μM STK1 substrate and 0-10 μM compound in buffer containing 50 mM HEPES, 0.01% BSA, 0.1 mM Orthovanadate, 10 mM MgCl2, 1 mM DTT, pH=7.0, 0.005% Tween-20. The kinase was incubated with the compounds disclosed herein or DMSO for 60 minutes at room temperature and the reaction was initiated by the addition of ATP and STK1 substrate. After reaction at room temperature for 120 minutes, an equal volume of stop/detection solution was added according to the manufacturer's instruction (CisBio). The stop/detection solution contained STK Antibody-Cryptate and XL665-conjugated streptavidin in Detection Buffer. The TR-FRET signals (ratio of fluorescence emission at 665 nm over emission at 620 nm with excitation at 337 nm wavelength) were recorded on a PHERAstar FS plate reader (BMG Labtech). Phosphorylation of STK1 substrate led to the binding of STK Antibody-Cryptate to the biotinylated STK1 substrate, which places fluorescent donor (Eu^3+ cryptate) in close proximity to the accepter (Streptavidin-XL665), thus resulting in a high degree of fluorescence resonance energy transfer. The inhibition of HPK1 in presence of increasing concentrations of compounds was calculated based on the ratio of fluorescence at 665 nm to that at 620 nm. The IC50 for each compound was derived from fitting the data to the four-parameter logistic equation by Graphpad Prism software.
row,SMILES,pIC50
1,"Cc1cc(-c2c[nH]c3ncc(-c4cc(C)c5c(c4)CN(CCC(=O)NC4CCOCC4)CC5)nc23)ccc1C(=O)N(C)C [Example 28, N, N, 2-trimethyl-4-(2-(5-methyl-2-(3-oxo-3-(tetrahydro-2H-pyran-4-ylamino)propyl)-1,2,3,4-tetrahydroisoquinolin-7-yl)-5H-pyrrolo[2,3-b]pyrazin-7-yl)benzamide]",7.17
2,"Cc1cc(-c2c[nH]c3ncc(-c4cc(C)c5c(c4)CN(CCC(=O)NC[C@@H](C)O)CC5)nc23)ccc1C(=O)N(C)C [Example 29, (R)-4-(2-(2-(3-(2-hydroxypropylamino)-3-oxopropyl)-5-methyl-1,2,3,4-tetrahydroisoquinolin-7-yl)-5H-pyrrolo[2,3-b]pyrazin-7-yl)-N, N, 2-trimethylbenzamide]",7.34
3,"Cc1cc(-c2c[nH]c3ncc(-c4cc(C)c5c(c4)CN(CCC(=O)NC[C@H](C)O)CC5)nc23)ccc1C(=O)N(C)C [Example 30, (S)-4-(2-(2-(3-(2-hydroxypropylamino)-3-oxopropyl)-5-methyl-1,2,3,4-tetrahydroisoquinolin-7-yl)-5H-pyrrolo[2,3-b]pyrazin-7-yl)-N, N, 2-trimethylbenzamide]",7.20
4,"Cc1cc(-c2c[nH]c3ncc(-c4cc(C)c5c(c4)CN(CCC(=O)NC4(CO)CC4)CC5)nc23)ccc1C(=O)N(C)C [Example 31, 4-(2-(2-(3-(1-(hydroxymethyl)cyclopropylamino)-3-oxopropyl)-5-methyl-1,2,3,4-tetrahydroisoquinolin-7-yl)-5H-pyrrolo[2,3-b]pyrazin-7-yl)-N, N, 2-trimethylbenzamide]",7.28
5,"Cc1cc(-c2c[nH]c3ncc(-c4cc(C)c5c(c4)CN(CCC(=O)NCC4(O)CC4)CC5)nc23)ccc1C(=O)N(C)C [Example 32, 4-(2-(2-(3-((1-hydroxycyclopropyl)methylamino)-3-oxopropyl)-5-methyl-1,2,3,4-tetrahydroisoquinolin-7-yl)-5H-pyrrolo[2,3-b]pyrazin-7-yl)-N, N, 2-trimethylbenzamide]",7.15
6,"Cc1cc(-c2c[nH]c3ncc(-c4cc(C)c5c(c4)CN(CCC(=O)NCC(C)(C)O)CC5)nc23)ccc1C(=O)N(C)C [Example 33, 4-(2-(2-(3-(2-hydroxy-2-methylpropylamino)-3-oxopropyl)-5-methyl-1,2,3,4-tetrahydroisoquinolin-7-yl)-5H-pyrrolo[2,3-b]pyrazin-7-yl)-N, N, 2-trimethylbenzamide]",7.31
7,"Cc1cc(-c2c[nH]c3ncc(-c4cc(C)c5c(c4)CN(CCC(=O)N[C@@H]4CCOC4)CC5)nc23)ccc1C(=O)N(C)C [Example 34, (R)—N, N, 2-trimethyl-4-(2-(5-methyl-2-(3-oxo-3-(tetrahydrofuran-3-ylamino)propyl)-1,2,3,4-tetrahydroisoquinolin-7-yl)-5H-pyrrolo[2,3-b]pyrazin-7-yl)benzamide]",7.38
8,"Cc1cc(-c2cnc3[nH]cc(-c4ccc(C(=O)N(C)C[C@@H]5CCOC5)cc4)c3n2)cc2c1CCN(C)C2 [Example 35, (S)-4-(2-(2,5-dimethyl-1,2,3,4-tetrahydroisoquinolin-7-yl)-5H-pyrrolo[2,3-b]pyrazin-7-yl)-N-methyl-N-((tetrahydrofuran-3-yl)methyl)benzamide]",7.72
9,"Cc1cc(-c2cnc3[nH]cc(-c4ccc(C(=O)N(C)C[C@@H]5CCOC5)cc4)c3n2)cc2c1CCN(CCN1CCC(C)(O)CC1)C2 [Example 36, (S)-4-(2-(2-(2-(4-hydroxy-4-methylpiperidin-1-yl)ethyl)-5-methyl-1,2,3,4-tetrahydroisoquinolin-7-yl)-5H-pyrrolo[2,3-b]pyrazin-7-yl)-N-methyl-N-((tetrahydrofuran-3-yl)methyl)benzamide]",7.41
10,"Cc1cc(-c2cnc3[nH]cc(-c4ccc(C(=O)N(C)C)cc4)c3n2)cc2c1CCN(CCN1CCC(C)(O)CC1)C2 [Example 37, 4-(2-(2-(2-(4-hydroxy-4-methylpiperidin-1-yl)ethyl)-5-methyl-1,2,3,4-tetrahydroisoquinolin-7-yl)-5H-pyrrolo[2,3-b]pyrazin-7-yl)-N, N-dimethylbenzamide]",7.46
11,"Cc1cc(-c2c[nH]c3ncc(-c4cc(C)c5c(c4)CN(C)CC5)nc23)ccc1C(=O)N(C)CC(C)(C)O [Example 39, 4-(2-(2,5-dimethyl-1,2,3,4-tetrahydroisoquinolin-7-yl)-5H-pyrrolo[2,3-b]pyrazin-7-yl)-N-(2-hydroxy-2-methylpropyl)-N, 2-dimethylbenzamide]",6.73
12,"COCCCN(C)C(=O)c1ccc(-c2c[nH]c3ncc(-c4cc(C)c5c(c4)CN(C)CC5)nc23)cc1 [Example 40, 4-(2-(2,5-dimethyl-1,2,3,4-tetrahydroisoquinolin-7-yl)-5H-pyrrolo[2,3-b]pyrazin-7-yl)-N-(3-methoxypropyl)-N-methylbenzamide]",7.77
13,"Cc1cc(-c2c[nH]c3ncc(-c4cc(C)c5c(c4)CN(CCC(=O)N[C@H]4CC[C@@H](O)CC4)CC5)nc23)ccc1C(=O)N(C)C [Example 41, 4-(2-(2-(3-((cis-4-hydroxycyclohexyl)amino)-3-oxopropyl)-5-methyl-1,2,3,4-tetrahydroisoquinolin-7-yl)-5H-pyrrolo[2,3-b]pyrazin-7-yl)-N, N, 2-trimethylbenzamide]",7.27
14,"Cc1cc(-c2c[nH]c3ncc(-c4cc(C)c5c(c4)CN(CCC(=O)NCCN4CCN(C)CC4)CC5)nc23)ccc1C(=O)N(C)C [Example 42, N, N, 2-trimethyl-4-(2-(5-methyl-2-(3-((2-(4-methylpiperazin-1-yl)ethyl)amino)-3-oxopropyl)-1,2,3,4-tetrahydroisoquinolin-7-yl)-5H-pyrrolo[2,3-b]pyrazin-7-yl)benzamide]",7.07
15,"Cc1cc(-c2c[nH]c3ncc(-c4cc(C)c5c(c4)CN(CCC(=O)NC4CC4)CC5)nc23)ccc1C(=O)N(C)C [Example 43, 4-(2-(2-(3-(cyclopropylamino)-3-oxopropyl)-5-methyl-1,2,3,4-tetrahydroisoquinolin-7-yl)-5H-pyrrolo[2,3-b]pyrazin-7-yl)-N, N, 2-trimethylbenzamide]",7.43
16,"COCCCNC(=O)CCN1CCc2c(C)cc(-c3cnc4[nH]cc(-c5ccc(C(=O)N(C)C)c(C)c5)c4n3)cc2C1 [Example 44, 4-(2-(2-(3-((3-methoxypropyl)amino)-3-oxopropyl)-5-methyl-1,2,3,4-tetrahydroisoquinolin-7-yl)-5H-pyrrolo[2,3-b]pyrazin-7-yl)-N, N, 2-trimethylbenzamide]",7.09
17,"Cc1cc(-c2c[nH]c3ncc(-c4cc(C)c5c(c4)CN(CCC(=O)NCCO)CC5)nc23)ccc1C(=O)N(C)C [Example 45, 4-(2-(2-(3-((2-hydroxyethyl)amino)-3-oxopropyl)-5-methyl-1,2,3,4-tetrahydroisoquinolin-7-yl)-5H-pyrrolo[2,3-b]pyrazin-7-yl)-N, N, 2-trimethylbenzamide]",7.28
18,"Cc1cc(-c2c[nH]c3ncc(-c4cc(C)c5c(c4)CN(CCC(=O)NCCCO)CC5)nc23)ccc1C(=O)N(C)C [Example 46, 4-(2-(2-(3-((3-hydroxypropyl)amino)-3-oxopropyl)-5-methyl-1,2,3,4-tetrahydroisoquinolin-7-yl)-5H-pyrrolo[2,3-b]pyrazin-7-yl)-N, N, 2-trimethylbenzamide]",7.19
19,"Cc1cc(-c2cnc3[nH]cc(-c4ccc(C(=O)N(C)C)cc4)c3n2)cc2c1CCN(CCC(=O)NC1CC1)C2 [Example 47, 4-(2-(2-(3-(cyclopropylamino)-3-oxopropyl)-5-methyl-1,2,3,4-tetrahydroisoquinolin-7-yl)-5H-pyrrolo[2,3-b]pyrazin-7-yl)-N, N-dimethylbenzamide]",7.66
20,"Cc1cc(-c2cnc3[nH]cc(-c4ccc(C(=O)N(C)C)cc4)c3n2)cc2c1CCN(CCC(=O)N[C@H]1CC[C@H](O)CC1)C2 [Example 48, 4-(2-(2-(3-(((1r, 4r)-4-hydroxycyclohexyl)amino)-3-oxopropyl)-5-methyl-1,2,3,4-tetrahydroisoquinolin-7-yl)-5H-pyrrolo[2,3-b]pyrazin-7-yl)-N, N-dimethylbenzamide]",7.19
21,"Cc1cc(-c2cnc3[nH]cc(-c4ccc(C(=O)N(C)C)cc4)c3n2)cc2c1CCN(CCC(=O)NCCN1CCN(C)CC1)C2 [Example 49, N, N-dimethyl-4-(2-(5-methyl-2-(3-((2-(4-methylpiperazin-1-yl)ethyl)amino)-3-oxopropyl)-1,2,3,4-tetrahydroisoquinolin-7-yl)-5H-pyrrolo[2,3-b]pyrazin-7-yl)benzamide]",7.17
